Experimental data from US20020131996A1, “Methods and compositions for blocking microbial adherence to eukaryotic cells” (priority 2001, published 2002).

What was measured:
Format in all cases: in vivo, human
[1] = tested on: bacterial vaginosis; assay: Amelioration of bacterial vaginosis with isoleucine powder applied in the vagina
Protocol: In this example isoleucine was administered locally to the vagina to treat the symptoms of bacterial vaginosis. By inhibiting the adherence of bacteria to the wall of the vagina, microbial growth, inflammation, and associated signs of malodorous discharge and symptoms such as pruritis can be treated. A person, with a normal menstrual cycle and in excellent health, experienced vaginal irritation and malodorous discharge associated with their cycle, generally beginning several days prior to the onset of their period. Isoleucine was self-administered as a powder locally within the vaginal cavity digitally, twice a day. Within 2 days symptoms of vaginosis disappeared. Isoleucine therapy was continued for several days following termination of menstrual discharge, and then stopped. […] Isoleucine was again administered during the following months, cycled as described initially.

[2] = tested on: bacteria adherent to gingival epithelial cells; assay: Microbial adherence to gingival epithelial cells in volunteers with low grade gingivitis (Giemsa-stained gingival scrapings)
From the text: In this example isoleucine was applied as a pure crystalline powder directly to the gums. The individuals were normal human volunteers. Each individual had clinically evident low grade gingivitis, as determined by the puffiness of the gingival margin and a history of some bleeding during normal dental brushing. Oral health care comprised twice daily flossing and dental brushing with a non-medicated toothpaste. No oral antiseptic was used. The individuals were not taking antibiotics. Isoleucine was applied by application of powder on the fingertip to the outer and inner gum margins of the upper and lower jaws. The entirety of the gingival surface was covered manually, twice daily. The AM application was performed following breakfast, immediately after brushing. The PM application was conducted prior to retiring for sleep.
Gingival surface was gently scrapped with the side of a rectangular glass cover slip and the material described was applied to a glass microscope slide and air-dried. The slide was stained in concentrated Giemsa stain for 1 min, then destained in water for 5 min. The slide was then air-dried and mounted with a cover slip cemented with Permount. Slides were examined by light microscopy at 100×and 400×magnification. Under these staining conditions bacteria were clearly visualized as dark blue particles against the pale gray epithelial cells.
Gingival scrapings were taken in the morning prior to normal oral care and prior to eating. Prior to scraping, the subject rinsed the mouth with a cup of water to wash free particulate matter, unattached cells, and bacteria.
Scrapings were taken 3 days and 1 day prior to isoleucine administration and 1, 3, 5, and 7 days during isoleucine application. […] The bacteria adherent were represented by several different species, distinguished by morphology. […] At least 200 bacteria were counted on the average on each cell.

[3] = tested on: infectious diarrhea (diarrheal agent not known); assay: Treatment of infectious diarrhea with oral isoleucine solution
Protocol: In this example isoleucine was administered to treat infectious diarrhea. In this example three individuals were naturally innoculated by a common agent. The nature of the diarrheal agent is not known. The duration of diarrhea was consistent with an infectious etiology. Isoleucine was utilized based on the hypothesis that reduction in microbial adherence would likely limit the continued re-infection of the gut wall by the agent, and/or prevent attachment of opportunistic commensal organisms.
Three members of a family traveling in the Middle East (MZ, BZ, JZ) contracted watery diarrhea, associated with food intolerance, following a meal they shared at a restaurant. Each individual had been in excellent health without prior history of GI complaints. All were unmedicated, including aspirin or antihistamines. […] Diarrhea was watery, without gross blood, minimal mucous, slight fever with chills, no nausea, and persistence of hunger. Peristalsis was vigorous and increased by ingestion of food. Each individual was placed on a diet restricted to clear liquids (juices and soda), digestible carbohydrates (bread, rice, candy). No medications were administered.
Six days after ingestion of the diarrheal agent, one individual was begun on oral isoleucine (ILE) therapy, while the other two continued on restricted diets. ILE (#E-2025 Bachem, lot 511191) was dissolved in distilled water to 0.001%. One glass of ILE solution (about 250 ml) was consumed every several hours. A total of about 4 liters was consumed over {fraction (3 1/2)}days. A reduction in stool frequency was noted within 12 hours of initiation of ILE therapy.

[4] = tested on: irritable bowel syndrome (IBS); assay: Amelioration of irritable bowel syndrome with isoleucine in yogurt
Protocol: In this example isoleucine was administered to individuals who experienced irritable bowel syndrome (IBS). IBS is a loosely defined condition associated with bowel discomfort including abdominal bloating, nausea, pain, and a sense of incomplete bowel movements. The etiology underlying IBS is unknown. It is our hypothesis that IBS results from adherence of certain “pathogenic” commensal organisms to the epithelial lining of certain segments of the GI tract, resulting in disturbance of normal host-bacteria relationships. […] Two women, each in their mid-50's, presented with a history of IBS of over 20 years, in each case. In each, IBS was characterized by a sense of bloating experienced after eating cooked or raw vegetables, fruits, and meat. Each individual experienced urgency to move her bowels several times a day to an extent that often awakened the individuals from sleep. Bloating was accompanied by abdominal discomfort, described as mild cramps. Individuals felt “gassy” most of the day. Each individual was given isoleucine, 1 tsp, twice a day, each dose mixed in ½cup of yogurt. The yogurt was included to promote reinoculation of the GI tract with probiotic “good” bacteria. In each case, it was known from previous experience that yogurt itself had little effect on the IBS experienced by these individuals. Within 2 days of isoleucine administration, bloating, urgency to defecate, and gassiness had disappeared. Both individuals described the state of their bowel function as “normal”, for the first time in 20 years. […] Each was then withdrawn from isoleucine, and provided yogurt unsupplemented with isoleucine. Within about 2 days both women recorded a reappearance of the former symptoms of IBS.

[5] = Day 1 of isoleucine powder applied to gums twice daily
[6] = Day 3 of isoleucine powder applied to gums twice daily
[7] = Day 7 of isoleucine powder applied to gums twice daily

## CC[C@H](C)[C@H](N)C(=O)O [isoleucine]
[1]; after cessation
  Symptoms following cessation of isoleucine administration: remained symptom free
[1]; cycled administration during following months
  Outcome of chronic vaginosis based on symptoms and signs: effectively cured
[1]; one person, powder in the vaginal cavity twice a day
  Time to disappearance of symptoms of vaginosis: ≤ 2 days
[2]; Day 1 following initiation of isoleucine application
  Change in number of epithelial cells covered with a dense coat of bacteria: little change
[2]; [5]
  Gingival epithelial cells with 0 Bacteria: 0 % cells
  Gingival epithelial cells with 1-10 Bacteria: 10 % cells
  Gingival epithelial cells with 10-100 Bacteria: 10 % cells
  Gingival epithelial cells with Contiguous lawn of bacteria: 80 % cells
[2]; Day 3
  Adherent bacteria in gingival smears: dramatic reduction
  Microcolonies (contiguous groupings of greater than 4 organisms) on cells: Few
  Neutrophils in gingival smear (sign of inflammation): No neutrophils were evident
  Total adherent bacteria per cell (most cells): < 100
[2]; Day 3, of 100 cells examined
  Cells fully covered with bacteria, of 100 cells examined: 40
[2]; [6]
  Gingival epithelial cells with 0 Bacteria: 15 % cells
  Gingival epithelial cells with 1-10 Bacteria: 15 % cells
  Gingival epithelial cells with 10-100 Bacteria: 30 % cells
  Gingival epithelial cells with Contiguous lawn of bacteria: 40 % cells
[2]; Day 7
  Breath as described by an examiner in the AM prior to oral hygiene: free of odor
[2]; [7]
  Gingival epithelial cells with 0 Bacteria: 80 % cells
  Gingival epithelial cells with 1-10 Bacteria: 15 % cells
  Gingival epithelial cells with 10-100 Bacteria: 0 % cells
  Gingival epithelial cells with Contiguous lawn of bacteria (fully covered): 5 % cells
[3]; MZ versus two untreated family members (BZ, JZ)
  Shortening of the duration of diarrhea: approximately three
[3]; individual, 3rd day
  Stools passed on the 3rd day of ILE therapy: no stools were passed
[3]; individual, by the 3rd day
  Food tolerance: cheese and chicken tolerated
[3]; individual, day 4
  Stool by day 4 following ILE treatment: a normal stool was passed
[3]; one individual, 0.001% ILE in distilled water, oral, begun six days after ingestion of agent
  Time to reduction in stool frequency after initiation of ILE therapy: ≤ 12 h
[4]; maintained for 1 month
  Response during maintenance on isoleucine: consistent response
[4]; two women on isoleucine in yogurt
  State of bowel function as described by the individuals: normal
[4]; two women, isoleucine 1 tsp twice a day in 1/2 cup yogurt
  Time to disappearance of bloating, urgency to defecate, and gassiness: ≤ 2 days
[4]; yogurt unsupplemented with isoleucine
  Time to reappearance of former IBS symptoms after withdrawal from isoleucine: about 2 days
